Values quoted from earlier work in US5599811A, “Benzothiazine dioxides as endothelin antagonists” (Warner-Lambert Company, priority 1995, dated 1997).
Where two headings read alike, the source gives them in different places. Where a SMILES comes first, the peptide text is derived from it. [ ]: non-standard residue; d: D form.

Experiments:
[1] = tested on: cerebral vasospasm following SAH; conditions: rabbit; cited from earlier work
[2] = tested on: cerebral vasospasm following SAH; conditions: rat; cited from earlier work
[3] = tested on: cerebral vasospasm following subarachnoid hemorrhage; conditions: in vivo; cited from earlier work
allergic sheep = conditions: cited from earlier work
basilar artery [4] = conditions: rabbits with SAH; cited from earlier work
congestive heart failure = conditions: rat, in vivo; cited from earlier work
acute renal ischemia = conditions: rats; cited from earlier work
subarachnoid hemorrhage = conditions: rats; cited from earlier work
[5] = tested on: ischemia-induced acute renal failure; conditions: anesthetized dogs (title of citation); cited from earlier work
basilar artery [6] = conditions: after 7 days, canine two-hemorrhage model of SAH; cited from earlier work

Compound: CC(C)C[C@@H]1NC(=O)[C@@H](C(C)C)NC(=O)[C@@H]2CCCN2C(=O)[C@@H](CC(=O)O)NC(=O)[C@@H](Cc2c[nH]c3ccccc23)NC1=O [BQ-123] (cyclo(L[dW][dD]P[dV]))
- prevention of early cerebral vasospasm following SAH [1]: prevents early cerebral vasospasm following SAH
- prevention of early cerebral vasospasm following SAH [2]: prevents early cerebral vasospasm following SAH
- prevention of early cerebral vasospasm following subarachnoid hemorrhage [3]: prevent early cerebral vasospasm following subarachnoid hemorrhage
- block of ET-1-induced bronchoconstriction and tracheal smooth muscle contraction (allergic sheep): block ET-1-induced bronchoconstriction and tracheal smooth muscle contraction

Compound: COc1ccccc1Oc1c(NS(=O)(=O)c2ccc(C(C)(C)C)cc2)nc(-c2ncccn2)nc1OCCO [Bosentan]
- reduction of basilar artery cross-sectional area compared to sham rabbits (basilar artery [4]): 36±7%
- treatment of congestive heart failure (congestive heart failure): useful in the treatment of congestive heart failure

Compound: COc1cccc(Oc2c(NS(=O)(=O)c3ccc(C(C)(C)C)cc3)ncnc2OCCO)c1 [Ro 46-2005]
- effect in model of acute renal ischemia (acute renal ischemia): effective
- prevention of early cerebral vasospasm following SAH [2]: prevent early cerebral vasospasm following SAH
- effect in model of subarachnoid hemorrhage (subarachnoid hemorrhage): effective

Compound: CCCOc1ccc2c(c1)[C@@H](c1ccc(OC)cc1OCC(=O)O)[C@H](C(=O)O)[C@H]2c1ccc2c(c1)OCO2 [SB 209670]
- effect in ischemia-induced acute renal failure [5]: beneficial in ischemia-induced acute renal failure

Compound: FR 139317
- inhibition of vasoconstriction of the basilar artery (basilar artery [6]): significantly inhibited the vascoconstriction of the basilar artery
